This note sets out measurements from US20230190870A1, “Method for Treating Lysosomal Storage Diseases with Histatin Peptides” (THE BOARD OF TRUSTEES OF THE UNIVERSITY OF ILLINOIS, priority 2020, published 2023).

Series [1] in a line: Circular dichroism secondary structure analysis (DichroWeb). In kind it is physicochemical. How it is done: Circular Dichroism (CD). CD analysis was performed on a Jasco 815 CD spectrometer at room temperature. TMEM97 (108-176) and Hst1 full-length peptides were prepared as 10 mM stock in 25% DMSO and water, respectively, and diluted to 0.15 mg/mL final concentration in 10 mM […] buffer. A total of 400 μL of each sample was added into a 1 mm quartz sample cell, and CD spectra were recorded from 260 nm to 190 nm wavelength. Data points were measure in 0.5 nm wavelength step at a scanning speed of 100 nm/minute. A total of five spectra were acquired for each sample and averaged. […] buffer without peptide was used as a control curve, which was subsequently subtracted from the CD spectra of peptide samples. The resulting buffer control subtracted CD intensity row data in millidegrees were submitted to DichroWeb and fitted with multiple embedded models and converted to mean residue ellipticity.
Subsequently, the hypothesis that interaction between Hst1 and TMEM97 could affect the structure of each protein was tested. Also, the secondary structure of Hst1 and TMEM97 was tested in solution using CD measurements. It was noted that Hst1 alone is mostly disordered (over 50%) with some degree of β-strand, while TMEM97 (108-176) contains some α-helical and β-strand regions with ˜34% disordered regions. According to CD spectra comparison, there seemed to be more secondary structures formed upon Hst1 binding to TMEM97 (108-176).
A general note: CD spectra are sensitive to the conformation of chiral molecules.

For series [2], the target named is T1, Synthetic TMEM97 (108-143) (Homo sapiens, UniProt Q5BJF2).
T1 construct: made in house; host or cells: chemical solid-phase synthesis (Fmoc, Wang resin)
Kind of series: Surface plasmon resonance, immobilized synthetic TMEM97 (108-143). The following applies: SPR. It counts as binding. How it is done: Surface Plasmon Resonance (SPR). Recombinant full-length TMEM97 (also called MAC30, from HEK293 cells) and GST-TMEM97 (108-176, recombinant GST-C terminal from wheat germ) proteins were purchased from OriGene (Rockville, Md.) and Abnova (Taipei City, Taiwan), respectively. Three peptides, TMEM97 (108-176), TMEM97 (108-143) and TMEM97 (144-176), were synthesized. All proteins and peptides were initially prepared in HBS buffer containing 10 mM HEPES, pH 7.4, 150 mM NaCl, and 0.05% surfactant P20. The CM5 sensor surface was first activated by 1-ethyl-3-(3-dimethylaminopropyl) carbodiimide hydrochloride (EDC)/N-hydroxy succinimide (NHS) mixture using a Biacore T200 or Biacore 8K instrument (GE Healthcare). […] Flow channels 1 and 3 were used as references.
The three synthesized peptides were diluted to 50 μg/mL in 10 mM sodium acetate at pH 4.0 and immobilized to flow channels 2, 3 and 4, respectively, on another sensor chip. The unmodified surfaces on a flow channel 1 were used as a reference control. Histatin solutions with a series of increasing concentrations (0.78-25 μM at 2-fold dilution) were applied to all four channels at a 30 μL/minute flow rate at 25° C. The data were double-referenced with reference channel and zero concentration responses, and reference subtracted sensorgrams were fitted with 1 to 1 Langmuir kinetic model using a Biacore T200 evaluation software V3.0 or Insight evaluation software. The equilibrium dissociation constants ([…]) were determined from two rate constants (KD=kd/ka).
To determine more precisely which segment of TMEM97 is necessary for binding of Hst1, multiple synthetic fragments of TMEM97 were generated (Table 6) and binding to Hst1 was tested using SPR. […] Smaller fragments of the C-terminal of TMEM97 were then constructed to represent the (predicted) luminal (108-143) and cytoplasmic (144-176) exposed segments of the C-terminus of TMEM97 based on modeling experiments previously described. […] SPR results for Hst1 were confirmed using ITC as an orthogonal analytical method.
To determine the region(s) of Hst1 that mediate binding to TMEM97, SPR testing was performed with various Hst1 fragments and either recombinant TMEM97 (GST-tagged, wheat-germ derived, C-terminal fragment TMEM97 (108-176)) or synthesized TMEM97 (TMEM97 (108-176), TMEM97 (108-143) and TMEM97 (144-176)).

The target of a further series is TMEM97 (Homo sapiens, UniProt Q5BJF2). Kind of series: Co-immunoprecipitation / western blot in HCE cells. Also on record: endogenous in cells; host or cells: HCE cells. It counts as binding. The following applies: 20 μM Hst1 for 6 hours, IP TMEM97 antibody. How it is done: Immunoprecipitation/Western Blot Analysis. The day before, HCE cells were plated at the concentration of 5×10^6 cells/well in a 100 mm dish and were treated with 20 μM of Hst1 for 6 hours. Cells were harvested with lysis buffer (1% NP40, 137 mM sodium chloride, 20 mM Tris [pH 8.0], and 10% glycerol) and the lysates were incubated with 5 μL of a validated rabbit polyclonal anti-TMEM97 antibody (Novus Bio.; Littleton, Colo.) overnight at 4° C. The lysates were incubated with 30 μL of a suspension of protein A/G (Santa Cruz Biotechnology; Dallas, Tex.) for 2 hours at 4° C. with gentle shaking. After centrifugation for 5 minutes, pellets were washed three times and resuspended in 50 μL of 2×NUPAGE® LDS sample buffer (Invitrogen; Carlsbad, Calif.) and boiled for 10 minutes.
For detecting Hst1 bound to TMEM97 protein, the lysates were subjected to electrophoresis on 12% NUPAGE® Bis-Tris gels (Invitrogen; Carlsbad, Calif.), followed by transfer to nitrocellulose membranes (Amersham Protran, GE Healthcare; Pittsburgh, Pa.). Membranes were then blocked with Tris-buffered saline containing 3% nonfat dry milk for 1 hour and incubated with rabbit primary antibody against Hst1 (Mybiosource; San Diego, Calif.) (1:1000) overnight at 4° C. […]
For orientation: A western blot detects proteins with antibodies after separation by electrophoresis.

Series [3] relates to Human corneal epithelial cells. Kind of series: Calcium Green-2 calcium signaling in human corneal epithelial cells. It counts as cell-based. How it is done: Calcium Signaling. Human corneal epithelial cells were treated with Hst1 or Hst5, stained with Calcium Green-2, and relative fluorescence intensity was monitored at 1, 2 and 4 hours. […] This normalization of cellular calcium levels seen after toxicity from benzalkonium chloride treatment is analogous to toxic effects seen in chronic pain and other conditions. As such, histatin peptides may of use in the amelioration of chronic pain.

Where [4] appears, read: CD, fraction of secondary structure.

Square brackets hold non-standard residues; d marks the D form. Peptide text beside a SMILES is read from it. pS = N[C@@H](COP(=O)(O)O)C(=O)O

T1 sequence (Q5BJF2 108-143 limits assumed): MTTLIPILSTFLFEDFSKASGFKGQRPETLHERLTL
Sequence of TMEM97 (Q5BJF2 whole entry): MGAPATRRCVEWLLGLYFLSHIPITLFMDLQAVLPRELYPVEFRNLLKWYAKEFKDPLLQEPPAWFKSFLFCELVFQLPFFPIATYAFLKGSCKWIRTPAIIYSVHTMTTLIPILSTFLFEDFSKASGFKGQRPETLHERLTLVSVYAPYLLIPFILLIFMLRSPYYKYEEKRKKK

`CC(C)C[C@H](NC(=O)[C@H](Cc1ccc(O)cc1)NC(=O)[C@H](CC(N)=O)NC(=O)[C@H](CO)NC(=O)CNC(=O)[C@H](Cc1ccc(O)cc1)NC(=O)[C@H](CC(=O)O)NC(=O)CNC(=O)[C@H](Cc1ccc(O)cc1)NC(=O)[C@H](Cc1ccccc1)NC(=O)[C@@H]1CCCN1C(=O)[C@H](Cc1ccccc1)NC(=O)[C@H](CCC(=O)O)NC(=O)[C@H](CCCNC(=N)N)NC(=O)[C@H](Cc1c[nH]cn1)NC(=O)[C@H](CO)NC(=O)[C@H](Cc1c[nH]cn1)NC(=O)[C@H](Cc1c[nH]cn1)NC(=O)[C@H](CCCCN)NC(=O)[C@H](CCC(=O)O)NC(=O)[C@H](Cc1c[nH]cn1)NC(=O)[C@H](Cc1ccccc1)NC(=O)[C@H](CCCCN)NC(=O)[C@H](CCCNC(=N)N)NC(=O)[C@H](CCCNC(=N)N)NC(=O)[C@H](Cc1ccc(O)cc1)NC(=O)CNC(=O)[C@H](Cc1c[nH]cn1)NC(=O)[C@H](Cc1c[nH]cn1)NC(=O)[C@H](CCCNC(=N)N)NC(=O)[C@H](CCCCN)NC(=O)[C@H](CCC(=O)O)NC(=O)[C@H](Cc1c[nH]cn1)NC(=O)[C@H](COP(=O)(O)O)NC(=O)[C@@H](N)CC(=O)O)C(=O)N[C@@H](Cc1ccc(O)cc1)C(=O)N[C@@H](CC(=O)O)C(=O)N[C@@H](CC(N)=O)C(=O)O` [Hst1] (H-D[pS]HEKRHHGYRRKFHEKHHSHREFPFYGDYGSNYLYDN-OH; N-terminus and C-terminus assumed): the disordered regions entry in series [1] (CD in solution) is “over 50%”. Besides, in series [1] (setting [4]), the Helix was determined as 0.02, the Strand came out at 0.29, the Turns is 0.15 and the Unordered stood at 0.54. The KD / binding entry in series [2] is recorded as “unable to bind”. Also, the KD / binding result in series [2] (listed as Hst1(1-38)) is reported as “No binding”. The “co-precipitation with TMEM97” value at TMEM97 is on record as “co-precipitated with TMEM97”. In series [3] (1, 2 and 4 hours), the “calcium signaling (relative fluorescence intensity)” value is “increases calcium signaling”. In series [3] (cells treated with 0.001% BAK), the “elevated calcium levels after benzalkonium chloride” value is “reduced elevated calcium levels”.
